Reference: US20100105727A1, “NOVEL BENZAMIDE DERIVATIVES AND PROCESS FOR THE PREPARTION THEREOF” (DONG-A-PHARM. CO., LTD., priority 2007, published 2010)
Like-named read-outs stand apart in the source and are kept apart here.

How the values were obtained:
hERG potassium channel = target: T1, hERG potassium channel (Homo sapiens, UniProt Q12809); assay: Binding affinity of compounds for hERG receptor ([H3]-Astemizole displacement, HEK-293 membrane lysates); conditions: % inhibition of specific binding of 1.5 nM [H3]-Astemizole at 10 μM test material
T1 construct: host or cells: HEK-293
T1 sequence (Q12809 whole entry): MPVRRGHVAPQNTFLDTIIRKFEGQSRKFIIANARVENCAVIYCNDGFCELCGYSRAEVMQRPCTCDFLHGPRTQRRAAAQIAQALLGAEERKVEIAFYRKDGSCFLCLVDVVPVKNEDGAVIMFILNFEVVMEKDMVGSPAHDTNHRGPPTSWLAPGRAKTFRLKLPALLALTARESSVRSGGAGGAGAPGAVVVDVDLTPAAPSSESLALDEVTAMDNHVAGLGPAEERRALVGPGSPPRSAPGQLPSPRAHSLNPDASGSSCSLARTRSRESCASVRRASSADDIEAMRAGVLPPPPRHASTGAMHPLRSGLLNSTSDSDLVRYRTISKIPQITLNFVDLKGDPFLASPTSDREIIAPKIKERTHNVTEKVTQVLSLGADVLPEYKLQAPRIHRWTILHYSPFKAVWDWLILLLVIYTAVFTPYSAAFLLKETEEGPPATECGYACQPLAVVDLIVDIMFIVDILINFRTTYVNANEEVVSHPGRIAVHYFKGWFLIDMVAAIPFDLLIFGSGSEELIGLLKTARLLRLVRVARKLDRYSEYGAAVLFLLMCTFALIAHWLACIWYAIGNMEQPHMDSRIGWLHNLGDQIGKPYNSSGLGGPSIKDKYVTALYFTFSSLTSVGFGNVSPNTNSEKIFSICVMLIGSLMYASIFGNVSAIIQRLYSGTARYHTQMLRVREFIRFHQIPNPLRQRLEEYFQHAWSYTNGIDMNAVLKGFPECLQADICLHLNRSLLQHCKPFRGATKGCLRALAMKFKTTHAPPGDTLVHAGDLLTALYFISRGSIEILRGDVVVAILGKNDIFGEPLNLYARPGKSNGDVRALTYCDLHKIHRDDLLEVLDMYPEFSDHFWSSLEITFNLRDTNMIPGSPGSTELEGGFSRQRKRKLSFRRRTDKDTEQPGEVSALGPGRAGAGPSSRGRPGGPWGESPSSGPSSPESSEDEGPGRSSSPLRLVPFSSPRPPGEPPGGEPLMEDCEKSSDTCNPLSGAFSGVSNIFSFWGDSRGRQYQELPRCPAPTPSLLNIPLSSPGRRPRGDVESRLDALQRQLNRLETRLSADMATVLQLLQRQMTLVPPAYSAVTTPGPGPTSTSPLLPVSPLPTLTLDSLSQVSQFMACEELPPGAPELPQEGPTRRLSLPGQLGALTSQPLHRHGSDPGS
Experimental: Membrane lysates were obtained from mammalian HEK-293 cells expressing the hERG potassium channel and used in binding assay experiments. […] After incubation was completed, the radioactivity bound to the hERG K+ channel was counted. The affinity of each test material for the hERG K+ channel was calculated from % inhibition of specific binding of the radioligand to the hERG K+ channel, resulting from the action of the test material.

human 5-HT4 receptor = target: T2, human 5-HT4 receptor (Homo sapiens, UniProt Q13639); assay: Binding affinity of compounds for 5-HT4 receptor (radioligand displacement, membrane lysates of COS-7 cells); conditions: inhibition of specific binding of 0.595 nM [H3]-AGR113808; COS-7 cell membrane lysates expressing human 5-HT4 receptor
T2 construct: expressed in transfected cells; host or cells: COS-7
T2 sequence (Q13639 whole entry): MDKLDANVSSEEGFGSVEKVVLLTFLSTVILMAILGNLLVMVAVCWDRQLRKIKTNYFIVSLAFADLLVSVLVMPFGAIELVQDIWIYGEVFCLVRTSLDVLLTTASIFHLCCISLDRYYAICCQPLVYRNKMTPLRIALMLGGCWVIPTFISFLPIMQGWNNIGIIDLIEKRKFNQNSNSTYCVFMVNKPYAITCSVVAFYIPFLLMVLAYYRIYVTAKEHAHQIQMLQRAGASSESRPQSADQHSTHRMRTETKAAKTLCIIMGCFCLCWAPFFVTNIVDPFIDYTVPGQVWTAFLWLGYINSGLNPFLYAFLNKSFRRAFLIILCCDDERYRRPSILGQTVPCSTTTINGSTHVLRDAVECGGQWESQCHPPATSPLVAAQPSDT
Experimental: For this purpose, COS-7 cells expressing the human 5-HT4 receptor were constructed and lysed to obtain cell membrane lysates which were then used in binding assay experiments. For binding assay, the membrane lysates were mixed and incubated with different concentrations of test materials and [H3]-AGR113808. […] After incubation was completed, the reaction products were collected in a GF/B glass fiber filter using a Packard cell harvester, and the bound radioactivity was then determined using a liquid cell scintillation counter (Packard TopCount NXT™, Perkin Elmer). Specific binding of the radioligand to the 5-HT4 receptor was calculated by subtracting the non-specific binding of the radioligand from the total radioligand binding. IC50 was calculated from % inhibition of specific binding of the radioligand to the 5-HT4 receptor, with respect to varying concentrations of the test materials.

male ICR mice = tested on: male ICR mice
Experimental: In order to examine acute toxicity of compounds according to the present invention, the following experiment was carried out.
Over the entire experimental period of 2 weeks, the minimum lethal dose (MLD, mg/kg) of the compound was investigated by the observation of the mortality, body weight and clinical symptoms of animals.

[1] = male, ICR, mouse, in vivo, po, 2 weeks
[2] = oral, single dose of 1 g/10 mL/kg in 1% hydroxypropylmethylcellulose, 5-week old male ICR mice, observed 2 weeks

Row | Structure (SMILES) | hERG binding affinity (% at 10 μM) (hERG potassium channel) | IC50 (human 5-HT4 receptor) | Minimum lethal dose (MLD, mg/kg) (male ICR mice; [1]) | Minimum lethal dose (MLD, mg/kg) (male ICR mice; [2])
1 | COc1cc(N)c(Cl)cc1C(=O)N[C@@H]1CCN(CCc2noc(C)n2)C[C@@H]1OC [Compound 55, (3S,4R)-4-amino-5-chloro-N-[1-(2-(5-methyl-1,2,4-oxadiazol-3-yl)ethyl)-3-methoxypiperidin-4-yl]-2-methoxybenzamide] | 31% | – | – | –
2 | COc1cc(N)c(Cl)cc1C(=O)N[C@H]1CCN(CC2CCN(C(=O)C(C)(C)C)CC2)C[C@H]1OC (relative stereo) [Compound 29, cis-4-amino-5-chloro-N-[1-((1-pivaloylpiperidin-4-yl)methyl)-3-methoxypiperidin-4-yl]-2-methoxybenzamide] | – | 0.034 µM | >1000 mg/kg | –
3 | COc1cc(N)c(Cl)cc1C(=O)N[C@H]1CCN(CCC(=O)Nc2cc(C)cc(C)n2)C[C@H]1OC (relative stereo) [Compound 59, cis-4-amino-5-chloro-N-[1-(3-oxo-3-(4,6-dimethylpyridin-2-ylamino)propyl)-3-methoxypiperidin-4-yl]-2-methoxybenzamide] | – | 0.14 µM | >1000 mg/kg | –
4 | COc1cc(N)c(Cl)cc1C(=O)N[C@H]1CCN(CC2CCN(C(=O)N(C)C)CC2)C[C@H]1OC (relative stereo) [Compound 64, 4-[cis-4-(4-amino-5-chloro-2-methoxybenzoylamino)-3-methoxy-piperidin-1-ylmethyl]-piperidine-1-carboxylic acid dimethylamide] | – | 0.029 µM | >1000 mg/kg | –
5 | CCOC(=O)N1CCC(CN2CC[C@@H](NC(=O)c3cc(Cl)c(N)cc3OC)[C@@H](OC)C2)CC1 [Compound 2, ethyl 4-[((3S,4R)-4-(4-amino-5-chloro-2-methoxybenzamido)-3-methoxypiperidin-1-yl)methyl]piperidine-1-carboxylate] | – | 0.083 µM | – | >1000 mg/kg
6 | CCOC(=O)N1CCC(CN2CC[C@H](NC(=O)c3cc(Cl)c(N)cc3OC)[C@H](OC)C2)CC1 (relative stereo) [Compound 1, ethyl 4-[(cis-4-(4-amino-5-chloro-2-methoxybenzamido)-3-methoxypiperidin-1-yl)methyl]piperidine-1-carboxylate] | – | 0.23 µM | – | >1000 mg/kg
7 | COc1cc(N)c(Cl)cc1C(=O)N[C@H]1CCN(CCC(=O)Nc2cccc3ncccc23)C[C@H]1OC (relative stereo) [Compound 56, cis-4-amino-5-chloro-N-[1-(3-oxo-3-(quinolin-5-yl-amino)propyl)-3-methoxypiperidin-4-yl]-2-methoxybenzamide] | 23% | 0.011 µM | >1000 mg/kg | –
8 | COc1cc(N)c(Cl)cc1C(=O)N[C@H]1CCN(CCc2noc(C)n2)C[C@H]1OC (relative stereo) [Compound 54, cis-4-amino-5-chloro-N-[1-(2-(5-methyl-1,2,4-oxadiazol-3-yl)ethyl)-3-methoxypiperidin-4-yl]-2-methoxybenzamide] | – | – | >1000 mg/kg | –
9 | COc1cc(N)c(Cl)cc1C(=O)N[C@H]1CCN(CC2CCN(C(=O)C(C)C)CC2)C[C@H]1OC (relative stereo) [Compound 14, cis-4-amino-5-chloro-N-[1-((1-isobutyrylpiperidin-4-yl)methyl)-3-methoxypiperidin-4-yl]-2-methoxybenzamide] | – | 0.141 µM | >1000 mg/kg | –
10 | CCC(=O)N1CCC(CN2CC[C@H](NC(=O)c3cc(Cl)c(N)cc3OC)[C@H](OC)C2)CC1 (relative stereo) [Compound 17, cis-4-amino-5-chloro-N-[1-((1-propionylpiperidin-4-yl)methyl)-3-methoxypiperidin-4-yl]-2-methoxybenzamide] | – | – | >1000 mg/kg | –
11 | COc1cc(N)c(Cl)cc1C(=O)N[C@H]1CCN(CC2CCN(S(C)(=O)=O)CC2)C[C@H]1OC (relative stereo) [Compound 43, cis-4-amino-5-chloro-N-[1-((1-(methylsulfonyl)piperidin-4-yl)methyl)-3-methoxypiperidin-4-yl]-2-methoxybenzamide] | – | 0.167 µM | – | –
12 | COc1cc(N)c(Cl)cc1C(=O)N[C@H]1CCN(CCC(=O)Nc2ccc3ncccc3c2)C[C@H]1OC (relative stereo) [Compound 57, cis-4-amino-5-chloro-N-[1-(3-oxo-3-(quinolin-6-ylamino)propyl)-3-methoxypiperidin-4-yl]-2-methoxybenzamide] | – | 0.053 µM | – | –
13 | COc1cc(N)c(Cl)cc1C(=O)N[C@H]1CCN(CC2CCN(C(=O)NC(C)C)CC2)C[C@H]1OC (relative stereo) [Compound 63, 4-[cis-4-(4-amino-5-chloro-2-methoxybenzoylamino)-3-methoxy-piperidin-1-ylmethyl]-piperidine-1-carboxylic acid isopropylamide] | – | 0.025 µM | – | >1000 mg/kg
14 | COc1cc(N)c(Cl)cc1C(=O)N[C@H]1CCN(CC2CCN(C(=S)C(C)(C)C)CC2)C[C@H]1OC (relative stereo) [Compound 38, cis-4-amino-5-chloro-N-[1-((1-(2,2-dimethylpropanethioyl)piperidin-4-yl)methyl)-3-methoxypiperidin-4-yl]-2-methoxybenzamide] | – | 0.217 µM | – | –
15 | COc1cc(N)c(Cl)cc1C(=O)N[C@H]1CCN(CCC(=O)Nc2ccc3[nH]ccc3c2)C[C@H]1OC (relative stereo) [Compound 61, cis-4-amino-5-chloro-N-[1-(3-oxo-3-(1H-indol-5-ylamino)propyl)-3-methoxypiperidin-4-yl]-2-methoxybenzamide] | – | 0.048 µM | – | –
16 | CCCOC(=O)N1CCC(CN2CC[C@H](NC(=O)c3cc(Cl)c(N)cc3OC)[C@H](OC)C2)CC1 (relative stereo) [Compound 6, propyl 4-[(cis-4-(4-amino-5-chloro-2-methoxybenzamido)-3-methoxypiperidin-1-yl)methyl]piperidine-1-carboxylate] | – | 0.094 µM | – | >1000 mg/kg
17 | COc1cc(N)c(Cl)cc1C(=O)NC1CCN(CCCOc2ccc(F)cc2)CC1OC (stereo not drawn) [Cisapride, cisapride, reference compound] | – | – | >1000 mg/kg | –
